# Measured values: patent EP4818168A1, “FUSED RING COMPOUND, PHARMACEUTICAL COMPOSITION THEREOF AND USE THEREOF” (priority 2023, dated 2025)
# Where two headings read alike, the source gives them in different places.
# Columns and labels:
# [1] = target: T1, AURKA (Homo sapiens, UniProt O14965); type: cell-based
# T1 construct: endogenous in cells; host or cells: Jurkat cells
# T1 sequence (O14965 1-403): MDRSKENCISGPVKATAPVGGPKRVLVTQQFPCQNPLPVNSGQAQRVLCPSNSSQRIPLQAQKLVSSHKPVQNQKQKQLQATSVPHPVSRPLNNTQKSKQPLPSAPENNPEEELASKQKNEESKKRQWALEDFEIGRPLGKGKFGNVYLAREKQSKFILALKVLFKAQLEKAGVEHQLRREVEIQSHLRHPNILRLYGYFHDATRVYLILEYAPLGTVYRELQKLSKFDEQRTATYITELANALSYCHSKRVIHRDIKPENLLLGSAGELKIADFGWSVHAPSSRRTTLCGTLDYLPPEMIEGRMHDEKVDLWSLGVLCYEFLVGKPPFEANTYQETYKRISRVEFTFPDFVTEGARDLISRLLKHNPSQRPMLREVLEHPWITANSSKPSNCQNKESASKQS
# In short: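 AURKA degradation read by western blot: band signal, fluorescent or chemiluminescent, curve-fitted to derive DC50. Cells were Jurkat, plated at 1×10^6 cells/500 µL with compound, then lysed and blotted onto nitrocellulose, primary antibody overnight at 4°C.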
# [2] = system: H82 cells; assay: cells; type: cell-based; conditions: Homo sapiens
# Description: CellTiter-Glo (CTG) is a rapid cell viability test method based on ATP detection. […] Adenosine triphosphate (ATP) participates in various enzymatic reactions in organisms and is an indicator of living cell metabolism. Its content directly reflects the number of living cells and cell status. During the experiment, equal volume of CTG reagent is added to the cultured cells to measure the luminescence value. The chemiluminescent signal value is proportional to the amount of ATP, thus reflecting the number of viable cells. Therefore, cell viability can be obtained by detecting the ATP content. Compounds that affect cell viability will inhibit cell viability in a concentration-dependent manner, allowing a curve to be fitted to obtain the IC50 value.
# The experimental procedure is as follows: • 11. Place the cell suspension in a 15 mL centrifuge tube, centrifuge at 1000 rpm for 5 min at room temperature, discard the supernatant, and collect the cell pellet. • 12. Resuspend the cell pellet with preheated complete cell culture medium (RPMI1640+10%FBS+1%PS), and use a Countess® automated cell counter to detect cell viability and density. […] Transfer the compound solution to a 96-well plate seeded with cells (final concentration of DMSO 0.1%), and place in a cell incubator at 37°C, 5% CO2 for 6 days. • 15. […] Protect from light during the whole process. Perform optical signal readings using a SpectraMax i3x reader. • 16. Data analysis: Remaining activity (%) = 100% * (1 - ((LumDMSO - Lummedium) - Lumsample) / (LumDMSO - LumPBS/medium)). Use GraphPad Prism 9.0 software to draw an S-shaped dose-survival rate curve and calculate the IC50 value using a nonlinear regression model.
# [3] = NCI-H82, read-out: IC50 in H82 Cells
# [4] = 100 nM compound, Jurkat cells, 24 h, Table 2
# [5] = 1 µM compound, Jurkat cells, 24 h, Table 2
# [6] = NCI-H82, H82 cells, 4000 cells/well, CellTiter-Glo, read-out: IC50 in H82 Cells
Structure (SMILES),Percentage of AURKA Degradation Induced by 100 nM Compound in Jurkat Cells [1],Percentage of AURKA Degradation Induced by 1 µM Compound in Jurkat Cells [1],"IC50 [2, 3] [nM]","Percentage of AURKA Degradation Induced by 100 nM Compound in Jurkat Cells [1, 4]","Percentage of AURKA Degradation Induced by 1 µM Compound in Jurkat Cells [1, 5]","IC50 [2, 6] [nM]"
Cc1c(N2CC(C#Cc3cccc(Nc4ncc5c(n4)-c4ccc(Cl)cc4C(c4c(F)cccc4F)=NC5)c3)C2)cccc1N1CCC(=O)NC1=O [Compound A156],+ (key: +: Degradation ≤ 30%; ++: 30% < Degradation ≤ 70%; +++: Degradation > 70%),+ (key: +: Degradation ≤ 30%; ++: 30% < Degradation ≤ 70%; +++: Degradation > 70%),1000 to 10000,,,
O=C1CCN(c2ccc(N3CCC4(CC3)CN(C3CN(c5ccc(Nc6ncc7c(n6)-c6ccc(Cl)cc6C(c6c(F)cccc6F)=NC7)cc5)C3)CCO4)nc2)C(=O)N1 [Compound A352],,,< 1000,+++ (Degradation > 70%),+++ (Degradation > 70%),
O=C1CCN(c2ccc(N3CCC4(CC3)CN(C3CCN(c5cccc(Nc6ncc7c(n6)-c6ccc(Cl)cc6C(c6c(F)cccc6F)=NC7)c5)CC3)CCO4)nc2)C(=O)N1 [Compound A347],+++ (key: +: Degradation ≤ 30%; ++: 30% < Degradation ≤ 70%; +++: Degradation > 70%),+++ (key: +: Degradation ≤ 30%; ++: 30% < Degradation ≤ 70%; +++: Degradation > 70%),< 1000,,,
O=C1CCN(c2ccc(N3CC4(CC(N5CCN(c6ccc(Nc7ncc8c(n7)-c7ccc(Cl)cc7C(c7c(F)cccc7F)=NC8)cc6)C(=O)C5)CO4)C3)nc2)C(=O)N1 (stereo not drawn) [Compound A329],,,,+++ (Degradation > 70%),+++ (Degradation > 70%),< 1000
Cn1nc(N2CCC(=O)NC2=O)c2ccc(N3CC4COCC(C3)N4C3CCN(c4ccc(Nc5ncc6c(n5)-c5ccc(Cl)cc5C(c5c(F)cccc5F)=NC6)cc4)CC3)cc21 [Compound A362],,,< 1000,+++ (Degradation > 70%),++ (30% < Degradation ≤ 70%),
CP(C)(=O)c1ccc2c(c1)C(c1c(F)cccc1F)=NCc1cnc(Nc3ccc(N4CCN(C5CCN(c6ccc(N7CCC(=O)NC7=O)cn6)CC5)CC4=O)cc3)nc1-2 [Compound A268],,,,+++ (Degradation > 70%),+++ (Degradation > 70%),1000 to 10000
O=C1CCN(c2ccc(N3CCOC(C(=O)N4CCN(c5ccc(Nc6ncc7c(n6)-c6ccc(Cl)cc6C(c6c(F)cccc6F)=NC7)cc5)CC4)C3)nc2)C(=O)N1 (stereo not drawn) [Compound A285],,,,+++ (Degradation > 70%),+++ (Degradation > 70%),< 1000
O=C1CCN(c2ccc(N3CCN(C4CCN(c5ccc(Nc6ncc7c(n6)-c6ccc(Cl)cc6C(c6c(F)cccc6F)=NC7)cc5)CC4)CC3)nc2)C(=O)N1 [Compound A185],+++ (key: +: Degradation ≤ 30%; ++: 30% < Degradation ≤ 70%; +++: Degradation > 70%),+++ (key: +: Degradation ≤ 30%; ++: 30% < Degradation ≤ 70%; +++: Degradation > 70%),< 1000,,,
O=C1CCN(c2ccc(N3CCC4(CC3)CC(N3CCN(c5ccc(Nc6ncc7c(n6)-c6ccc(Cl)cc6C(c6c(F)cccc6F)=NC7)cc5)C(=O)C3)CO4)nc2)C(=O)N1 (stereo not drawn) [Compound A336],,,,+++ (Degradation > 70%),+++ (Degradation > 70%),< 1000
O=C1CCN(c2ccc(N3CCC(CN4CC(=O)N(C56CC(Nc7ncc8c(n7)-c7ccc(Cl)cc7C(c7c(F)cccc7F)=NC8)(C5)C6)C(=O)C4)CC3)nc2)C(=O)N1 [Compound A283],,,,+++ (Degradation > 70%),+++ (Degradation > 70%),< 1000
O=C1CCN(c2cncc(N3CCN(CC4CN(c5cccc(Nc6ncc7c(n6)-c6ccc(Cl)cc6C(c6c(F)cccc6F)=NC7)c5)C4)CC3)c2)C(=O)N1 [Compound A197],,,,+++ (Degradation > 70%),+++ (Degradation > 70%),< 1000
O=C1CCN(c2ccc(N3CCN(C(=O)C4CCN(C56CC(Nc7ncc8c(n7)-c7ccc(Cl)cc7C(c7c(F)cccc7F)=NC8)(C5)C6)C(=O)C4)CC3)nc2)C(=O)N1 (stereo not drawn) [Compound A284],,,,+++ (Degradation > 70%),++ (30% < Degradation ≤ 70%),< 1000
O=C1CCN(c2ccc(N3CCN(C(=O)C4CCN(C56CC(Nc7ncc8c(n7)-c7ccc(Cl)cc7C(c7c(F)cccc7F)=NC8)(C5)C6)CC4)CC3)nc2)C(=O)N1 [Compound A243],,,,+++ (Degradation > 70%),+++ (Degradation > 70%),< 1000
O=C1CCN(c2cccc(N3CCN(CCc4cccc(Nc5ncc6c(n5)-c5ccc(Cl)cc5C(c5c(F)cccc5F)=NC6)c4)CC3)c2)C(=O)N1 [Compound A147],,,,+++ (Degradation > 70%),+++ (Degradation > 70%),< 1000
O=C1CCN(c2ccc(N3CCN(C(=O)N4CCN(c5ccc(Nc6ncc7c(n6)-c6ccc(Cl)cc6C(c6c(F)cccc6F)=NC7)cc5)CC4)CC3)nc2)C(=O)N1 [Compound A258],,,,+++ (Degradation > 70%),+++ (Degradation > 70%),< 1000
O=C1CCN(c2ccc(N3CCC(N4CCN(c5ccc(Nc6ncc7c(n6)-c6ccc(Cl)cc6C(c6c(F)cccc6F)=NC7)cn5)CC4)CC3)nc2)C(=O)N1 [Compound A213],,,,+++ (Degradation > 70%),+++ (Degradation > 70%),< 1000
Cc1c(N2CCC(CN3Cc4ccc(Nc5ncc6c(n5)-c5ccc(Cl)cc5C(c5c(F)cccc5F)=NC6)cc4C3)CC2)cccc1N1CCC(=O)NC1=O [Compound A181],,,,+++ (Degradation > 70%),+++ (Degradation > 70%),< 1000
Cc1c(N2CCC(N3Cc4ccc(Nc5ncc6c(n5)-c5ccc(Cl)cc5C(c5c(F)cccc5F)=NC6)cc4C3)CC2)cccc1N1CCC(=O)NC1=O [Compound A179],,,,++ (30% < Degradation ≤ 70%),++ (30% < Degradation ≤ 70%),< 1000
O=C1CCN(c2ccc(N3CCC(N4CCN(C56CC(Nc7ncc8c(n7)-c7ccc(Cl)cc7C(c7c(F)cccc7F)=NC8)(C5)C6)CC4)C3)nc2)C(=O)N1 (stereo not drawn) [Compound A227],,,,++ (30% < Degradation ≤ 70%),+ (Degradation ≤ 30%),< 1000
O=C1CCN(c2ccc(N3CCC4(CC3)CC(N3CCN(C56CC(Nc7ncc8c(n7)-c7ccc(Cl)cc7C(c7c(F)cccc7F)=NC8)(C5)C6)CC3)CO4)nc2)C(=O)N1 (stereo not drawn) [Compound A361],,,,+++ (Degradation > 70%),+++ (Degradation > 70%),< 1000
O=C1CCN(c2ccc(N3CCN(C(=O)C4CN(c5ccc(Nc6ncc7c(n6)-c6ccc(Cl)cc6C(c6c(F)cccc6F)=NC7)cc5)CCO4)CC3)nc2)C(=O)N1 (stereo not drawn) [Compound A308],,,,+++ (Degradation > 70%),+++ (Degradation > 70%),< 1000
O=C1CCN(c2ccc(N3CC4COCC(C3)N4CC3CCN(c4ccc(Nc5ncc6c(n5)-c5ccc(Cl)cc5C(c5c(F)cccc5F)=NC6)cc4)CC3)nc2)C(=O)N1 [Compound A359],,,,+++ (Degradation > 70%),+++ (Degradation > 70%),< 1000
